Laboratory results: patent US20110230465A1, “VIRAL POLYMERASE INHIBITORS” (BOEHRINGER INGLEHEIM INTERNATIONAL GMBH, priority 2009, published 2011)
Blank lines part the entries; values can stand above or below the compound they belong to.

What was measured:
[1] = biological target: T1, hepatitis C virus RNA dependent polymerase (NS5B) (Hepatitis C virus genotype 1b, UniProt P26663); test: Inhibition of NS5B RNA dependent RNA polymerase activity; format: biochemical; settings: assay of Example 158A; read-out: IC50 (nM) Ex 158A (converted)
T1 construct: the RNA dependent RNA polymerase of HCV, specifically, the enzyme NS5B encoded by HCV
Procedure: Inhibition of NS5B RNA Dependent RNA Polymerase Activity
Representative compounds of the invention are tested for inhibitory activity against the hepatitis C virus RNA dependent polymerase (NS5B), using the assay described in WO2009/018657, herein incorporated by reference.

[2] = test system: HCV RNA replication in Huh-7 cells with a stable subgenomic HCV replicon (MP-1 cells); test: microbe, parasite or virus in culture; format: cell-based; settings: Hepatitis C virus, assay of Example 159A, read-out: EC50 (nM) Ex 159A (converted)

T1 sequence (P26663 2420-3010): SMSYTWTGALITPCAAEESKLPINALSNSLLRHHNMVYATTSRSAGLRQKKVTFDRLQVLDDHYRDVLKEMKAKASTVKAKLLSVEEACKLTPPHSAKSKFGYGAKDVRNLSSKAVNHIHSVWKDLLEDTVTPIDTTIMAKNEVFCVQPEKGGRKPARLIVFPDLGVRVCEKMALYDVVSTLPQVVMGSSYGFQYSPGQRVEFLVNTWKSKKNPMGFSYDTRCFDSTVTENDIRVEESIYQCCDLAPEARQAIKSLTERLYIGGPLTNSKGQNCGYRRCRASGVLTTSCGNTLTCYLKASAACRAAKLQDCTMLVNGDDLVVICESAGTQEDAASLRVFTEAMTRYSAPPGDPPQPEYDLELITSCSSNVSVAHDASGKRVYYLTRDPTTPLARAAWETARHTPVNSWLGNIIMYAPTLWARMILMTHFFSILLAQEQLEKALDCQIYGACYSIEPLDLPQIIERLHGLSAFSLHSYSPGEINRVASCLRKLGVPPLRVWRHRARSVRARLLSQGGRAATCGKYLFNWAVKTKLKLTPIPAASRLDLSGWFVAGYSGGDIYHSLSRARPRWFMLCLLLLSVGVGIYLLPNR

Structure (SMILES): Cc1ccc(Cn2cnc(=O)c3cc(Oc4ccc(C(N)=O)cc4)ccc32)c(F)c1 [Compound 1030]
- IC50 [1]: 610 nM
- EC50 [2]: 8500 nM

Structure (SMILES): O=c1ncn(Cc2c(F)cc(F)cc2F)c2ccc(O[C@H]3CC[C@H](CO)CC3)cc12 [Compound 2061]
- IC50 [1]: 530 nM
- EC50 [2]: 2500 nM

Structure (SMILES): Cc1ccc(Cn2cnc(=O)c3cc(Oc4ncccc4C(F)(F)F)ccc32)c(-c2ccsc2)c1 [Compound 3052]
- IC50 [1]: 110 nM
- EC50 [2]: 210 nM

Structure (SMILES): Cc1ccc(-c2ncccc2-n2cnc(=O)c3cc(Oc4ncccc4C(F)(F)F)ccc32)cc1 [Compound 3090]
- IC50 [1]: 130 nM
- EC50 [2]: 82 nM

Structure (SMILES): COCCOc1ccnc(Oc2ccc3c(c2)c(=O)ncn3Cc2c(F)cc(F)cc2F)c1C(F)(F)F [Compound 4003]
- IC50 [1]: 67 nM
- EC50 [2]: 61 nM

Structure (SMILES): O=c1ncn(Cc2c(F)cc(F)cc2F)c2ccc(Oc3ncc(Cc4nn[nH]n4)cc3C(F)(F)F)cc12 [Compound 4020]
- IC50 [1]: 78 nM
- EC50 [2]: 5400 nM

Structure (SMILES): O=c1ncn(Cc2ccc(F)cc2F)c2ccc(Oc3ncc(Cn4nccn4)cc3C(F)(F)F)cc12 [Compound 5001]
- IC50 [1]: 240 nM
- EC50 [2]: 470 nM

Structure (SMILES): NC(=O)Cc1cccc(Oc2ccc3c(c2)c(=O)ncn3Cc2c(F)cc(F)cc2F)c1C(F)(F)F [Compound 6036]
- IC50 [1]: 18 nM
- EC50 [2]: 60 nM

Structure (SMILES): Cc1ncccc1NC(=O)c1ccc(Oc2ccc3c(c2)c(=O)ncn3Cc2c(F)cc(F)cc2F)c(C(F)(F)F)c1 [Compound 6047]
- IC50 [1]: 15 nM
- EC50 [2]: 10 nM

Structure (SMILES): CN(C)C(=O)c1cccc(Oc2ccc3c(c2)c(=O)ncn3Cc2c(F)cc(F)cc2F)c1 [Compound 7034]
- IC50 [1]: 4900 nM
- EC50 [2]: 5700 nM

Structure (SMILES): CN(C)c1cc2c(cc1Oc1ncccc1C(F)(F)F)c(=O)ncn2Cc1ccc(F)cc1F [Compound 8009]
- EC50 [2]: > 10000 nM

Structure (SMILES): CCc1nc(=O)c2cc(Oc3ncccc3C(F)(F)F)ccc2n1-c1cccnc1-c1ccc(C)cc1F [Compound 8011]
- IC50 [1]: 34500 nM
- EC50 [2]: 4800 nM

- IC50 [1]: 23 nM
Structure (SMILES): CCNc1ccc(-c2cccc(Oc3ccc4c(c3)c(=O)ncn4[C@H](C)c3c(F)cc(F)cc3F)c2C(F)(F)F)cn1 [Compound 9001]

Structure (SMILES): C[C@H](c1c(F)cc(F)cc1F)n1cnc(=O)c2cc(Oc3cccc(-c4ccc(N)nc4)c3C(F)(F)F)ccc21 [Compound 9003]
- IC50 [1]: 18 nM
- EC50 [2]: 4 nM

- IC50 [1]: 7.8 nM
Structure (SMILES): C[C@H](c1c(F)cc(F)cc1F)n1cnc(=O)c2cc(Oc3cccc(-c4ncc(N)cn4)c3C(F)(F)F)ccc21 [Compound 9011]

Structure (SMILES): O=c1ncn(Cc2c(F)cc(F)cc2F)c2ccc(Oc3cccc(-c4cccc5[nH]ccc45)c3C(F)(F)F)cc12 [Compound 9016]
- IC50 [1]: 25 nM
- EC50 [2]: 2.2 nM

Structure (SMILES): Cc1c(-c2cccc(Oc3ccc4c(c3)c(=O)ncn4Cc3c(F)cc(F)cc3F)c2C(F)(F)F)cnn1-c1ccccc1 [Compound 9019]
- IC50 [1]: 51 nM
- EC50 [2]: 183 nM

Structure (SMILES): O=c1ncn(Cc2c(F)cc(F)cc2F)c2ccc(Oc3cccc(-c4ccc5nonc5c4)c3C(F)(F)F)cc12 [Compound 9020]
- IC50 [1]: 107 nM
- EC50 [2]: 199 nM

- IC50 [1]: 14 nM
Structure (SMILES): Cc1nc(-c2cccc(Oc3ccc4c(c3)c(=O)ncn4[C@H](C)c3c(F)cc(F)cc3F)c2C(F)(F)F)ncc1N [Compound 9025]

- IC50 [1]: 28 nM
Structure (SMILES): N#Cc1cc(-c2cccc(Oc3ccc4c(c3)c(=O)ncn4Cc3c(F)cc(F)cc3F)c2C(F)(F)F)cnc1N [Compound 9026]
